From US4564684A, “3-Amino-1-phenyl-2-pyrazolines” (priority 1980, dated 1986)
pIC50: −log10 of the molar value. Where a name gives a salt, the structure may show the parent alone.

Key:
lipoxygenase = experiment: Inhibition of lipoxygenase in an enzyme assay according to the method of Blackwell and Flower; format: biochemical; conditions: Table I, read-out: ED50 for inhibition of lipoxygenase
cyclo-oxygenase = experiment: Inhibition of cyclo-oxygenase in an enzyme assay according to the method of Blackwell and Flower; format: biochemical; conditions: Table I, read-out: ED50 for inhibition of cyclo-oxygenase

Row | SMILES | pIC50 (lipoxygenase) | pIC50 (cyclo-oxygenase)
1 | CNC1=NN(c2cccc(C(F)(F)F)c2)CC1 [Example 1, 3-methylamino-1-(3-trifluoromethylphenyl)-2-pyrazoline] | ~6.52 | ~6.52
2 | CCNC1=NN(c2cccc(C(F)(F)F)c2)CC1 [Example 2, 3-ethylamino-1-(3-trifluoromethylphenyl)-2-pyrazoline] | ~6.15 | ~6.10
3 | CCCNC1=NN(c2cccc(C(F)(F)F)c2)CC1 [Example 3, 3-propylamino-1-(3-trifluoromethylphenyl)-2-pyrazoline] | > 6.52 | > 6.52
4 | CCCCNC1=NN(c2cccc(C(F)(F)F)c2)CC1 [Example 4, 3-butylamino-1-(3-trifluoromethylphenyl)-2-pyrazoline] | > 6.52 | > 6.52
5 | FC(F)(F)c1cccc(N2CCC(NCc3ccccc3)=N2)c1 [Example 5, 3-benzylamino-1-(3-trifluoromethylphenyl)-2-pyrazoline hydrochloride] | ~6.52 | ~6.52
